Here are results for 35 molecules from patent publication US5424185A, “Human high-affinity neurotransmitter uptake system” (Baylor College of Medicine, priority 1990, dated 1995).

Usually pIC50 stands for the IC50 on a negative log10 scale, so that one unit is a factor of ten.

pIC50: −log10 of the molar value. Like-named read-outs stand apart in the source and are kept apart here.

Assay [1] has as its system aspartate/glutamate co-transport system (L-Aspl cells). Description: D-[3H]aspartate uptake by L-Aspl cells. The class given is cell-based, human. The method, then: Kinetic analyses of D-[^3 H] […] Asp. […] Asp uptake.
The specificity of the high-affinity transport mechanism in L-Aspl cells also was examined. […] Asp.
The high-affinity transport system in L-Aspl cells was also analyzed in terms of its relative sensitivity to compounds specific for various subtypes of excitatory amino acid (EAA) receptors.
A series of known inhibitors of high-affinity D-Asp uptake systems (including L-cysteic acid (L-CA), L-cysteine sulfinic acid (L-CSA), aminophosphonoproprionic acid (APPA) and D-threoaspartic acid (THAA)) were also tested for their effects on D-[^3 H] Asp uptake by L-Aspl cells.

In assay [2] the test system is human L-glutamate transporter (L-Glul cells). Description: L-[3H]glutamate uptake by L-Glul cells. The following applies: unlabelled neurotransmitters, EAA receptor ligands, co-transporter inhibitors. It is filed as cell-based. Here is the method:
Both L-Glul and L-M cells were assessed for their kinetic properties of [^3 H] Glu uptake, and the results were analyzed by fitting to Michaelis-Menten kinetics. This was done by incubating cells with differing concentrations of [^3 H] Glu (ranging from 0.05 to 2 μM) for 10 minutes, at both 37° C. and 0° C. The amount of [^3 H] Glu retained by the cells following incubation was then quantitated and converted (using the manufacturer's specific activity for [^3 H] Glu to the corresponding picomole-equivalent of the radioligand, for each concentration of radioligand at each temperature. Then, the pmol value is normalized by the length of incubation and the amount of protein corresponding to the number of cells assayed. The resulting value, expressed in units of pmol/min/mg protein, is the initial velocity value for each concentration of [^3 H] Glu at each temperature. The initial velocity measured at 37° C. represents total initial velocity; the initial velocity measured at 0° C. represents nonspecific initial velocity. The difference between these two velocity values is then the specific initial velocity, denoted by "V", for each concentration of [^3 H] Glu.
Various drugs specific for excitatory amino acid (EAA) receptor subtypes were assessed for their effects on [^3 H] Glu uptake by L-Glul cells.
Glu uptake by L-Glul cells.

The subject of assay [3] is GABA transporter (L-GAB1 cells). Description: [3H]GABA uptake by L-GAB1 cells. The class given is cell-based, human. Particulars: competitor at 100-fold excess relative to [3H]GABA. Here is the method: Using concentrations of [^3 H] GABA ranging from 2 to 500 μM, the kinetic profile of GABA uptake was determined for both L-GAB1 and L-M cells. The initial velocity of GABA uptake was measured and plotted against the corresponding [^3 H] GABA concentration for both cell lines. […] The velocity profile for L-GAB1 cells was subtracted by that of L-M cells, and the resulting data used for a double-reciprocal plot of velocity-^1 against GABA concentration-^1. The velocity profile for L-M cells was also transformed into a double-reciprocal plot.
Several known inhibitors of high-affinity GABA uptake were used to examine their efficacies in inhibiting [^3 H] GABA uptake by L-GAB1 cells. […] Each of these agents was used at several concentrations ranging from 1 to 100 μM in assays of [^3 H] GABA uptake by L-GAB1 cells. […] GABA uptake by L-GAB1 cells.
L-GAB1 cells were also analyzed in terms of their ligand-specificity in the high-affinity GABA uptake mechanism.

Another assay deals with Rat Synaptosomes. Particulars: literature values; read-out: Representative IC50, Rat Synaptosomes; cited from earlier work.
Assay [4] addresses T1, human 5HT transporter (L-S1 cells) (Homo sapiens, UniProt P31645).
T1 construct: expressed in transfected cells; host or cells: mouse L-M fibroblasts (ATCC CCL 1.2) transfected with total human genomic DNA and pSV2neo; clone L-S1
Nature of the assay: [3H]-5-HT uptake by L-S1 cells. The class given is cell-based. Here is the method:
The cells were incubated at 37° C. for an additional 40 min.
L-S1 and L-M cells were preplated into 96-well culture plates. For uptake assays, the growth medium was removed from each well and the cells rinsed several times with oxygenated Ringer's buffer supplemented with 0.5 mM pargyline and 0.5 mM ascorbate. […] […] […] The cells remaining in the wells were lysed with 1% sodium dodecyl sulphate (SDS) and transferred to counting vials containing 5 ml of ACS scintillant (Amersham), for liquid scintillation spectrometry. For each assay, 6-8 parallel sets of wells were assayed simultaneously.
(§1) Non-specific activity was determined from parallel assays carried out at 0° C. Initial velocities were calculated in terms of pmol/mg protein/min by subtracting velocity values obtained at 0° C. from those obtained at 37° C.
(§2) Cells were assayed in the presence of each inhibitor for 40 minutes at 37° C., washed with Ringer's buffer and prepared for counting as previously described. Five confluent wells were assayed at each inhibitor concentration. The IC50 value for each inhibitor was determined by plotting the percent activity against the logarithm of inhibitor concentration. Measured levels of uptake in the presence of inhibitors were expressed as the percentage of maximal uptake (100 %) in the absence of inhibitor.

Assay [5] deals with T2, human 5HT transporter (L-S2 cells) (Homo sapiens, UniProt P31645).
T2 construct: expressed in transfected cells; host or cells: mouse L-M fibroblasts (ATCC CCL 1.2) transfected with total human genomic DNA and pSV2neo; clone L-S2
Description: [3H]-5-HT uptake by L-S2 cells. It is filed as cell-based. The method, then: L-S1 and L-M cells were preplated into 96-well culture plates. For uptake assays, the growth medium was removed from each well and the cells rinsed several times with oxygenated Ringer's buffer supplemented with 0.5 mM pargyline and 0.5 mM ascorbate. […] The radioligand was added to a final concentration of 0.1 μM and incubated with the cells at 37° C. for 40 minutes. The incubation mixture was then removed and each well was washed three times at room temperature with Ringer's buffer. The cells remaining in the wells were lysed with 1% sodium dodecyl sulphate (SDS) and transferred to counting vials containing 5 ml of ACS scintillant (Amersham), for liquid scintillation spectrometry. For each assay, 6-8 parallel sets of wells were assayed simultaneously.
as §1, §2

The mark [6] stands for this setting: ligand 10 μM, 10 min preincubation, 0.1 μM [3H]-5HT, 40 min, 37° C. (FIG. 1).

T2 sequence (P31645 whole entry): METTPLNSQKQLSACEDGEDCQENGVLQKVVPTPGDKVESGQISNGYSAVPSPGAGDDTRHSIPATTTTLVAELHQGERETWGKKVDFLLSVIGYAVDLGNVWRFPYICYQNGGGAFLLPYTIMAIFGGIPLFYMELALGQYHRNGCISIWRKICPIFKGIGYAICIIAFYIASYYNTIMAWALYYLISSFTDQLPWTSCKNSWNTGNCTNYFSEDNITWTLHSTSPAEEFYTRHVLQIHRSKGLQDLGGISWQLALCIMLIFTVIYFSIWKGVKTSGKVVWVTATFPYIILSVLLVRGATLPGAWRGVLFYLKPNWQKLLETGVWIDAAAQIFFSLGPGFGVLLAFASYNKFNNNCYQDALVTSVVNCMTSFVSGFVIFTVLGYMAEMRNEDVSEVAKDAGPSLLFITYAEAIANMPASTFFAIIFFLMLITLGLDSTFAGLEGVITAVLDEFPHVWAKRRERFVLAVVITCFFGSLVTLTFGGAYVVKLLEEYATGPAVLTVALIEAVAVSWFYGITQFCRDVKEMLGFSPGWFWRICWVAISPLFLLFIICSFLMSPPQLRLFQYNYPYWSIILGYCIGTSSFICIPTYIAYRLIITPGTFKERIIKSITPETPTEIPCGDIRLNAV
T1 sequence (P31645 whole entry): as above

For `NC(CCCC(=O)O)C(=O)O` (centres unmarked) [AAA, a-aminoadipic acid], the “effect on D-[3H]Asp uptake by L-Aspl cells” value (“effect on D-[3H]Asp uptake” for short) in assay [1] is recorded as “virtually without inhibitory effect”.

Regarding `Cc1onc(O)c1CC(N)C(=O)O` [AHMIP, D-amino-3-hydroxy-5-methyl-4-isoxazoneproprionic acid], the “effect on [3H]Glu uptake by L-Glul cells” value in assay [2] is recorded as “no inhibitory effect”.

On to `NC(CCP(=O)(O)O)C(=O)O` (centres unmarked) [AP4, 2-amino-4-phosphonobutyric acid], for which, in assay [2], the “effect on [3H]Glu uptake by L-Glul cells” value is on record as “without effect”.

As to `NC(CP(=O)(O)O)C(=O)O` (centres unmarked) [APPA, aminophosphonoproprionic acid], the “effect on D-[3H]Asp uptake” value in assay [1] is “moderate in inhibitory potency”.

As to `NC(CCCP(=O)(O)O)C(=O)O` (centres unmarked) [APV, 2-amino-5-phosphonovaleric acid], in assay [2], the “effect on [3H]Glu uptake by L-Glul cells” value is listed as “without effect”.

As to `N[C@H](CCS(=O)(=O)O)C(=O)O` [D-homocysteic acid], in assay [2], the “effect on [3H]Glu uptake by L-Glul cells” value was “without effect”.

For `CCOC(=O)CC[C@H](N)C(=O)OCC` [DEEG, glutamate diethylester], the “effect on D-[3H]Asp uptake” value in assay [1] is reported as “without effect”.

As for `N[C@H](CCC(=O)NCS(=O)(=O)O)C(=O)O` [GAMS], the “effect on [3H]Glu uptake by L-Glul cells” value in assay [2] is listed as “without effect”.

Turning to `N[C@@H](CS(=O)(=O)O)C(=O)O` [L-CA, L-cysteic acid], the “effect on D-[3H]Asp uptake” value in assay [1] was “potent inhibitory effects”.

`N[C@@H](CS(=O)O)C(=O)O` [L-CSA, L-cysteine sulfinic acid]: the “effect on D-[3H]Asp uptake” value in assay [1] is reported as “potent inhibitory effects”.

`C[C@H](N)C(=O)O` [L-alanine]: the “ligand-specificity of [3H]GABA uptake by L-GAB1 cells” value (“ligand-specificity of [3H]GABA uptake” below) in assay [3] is given as “somewhat sensitive”.

For the molecule `N=C(N)NCCC[C@H](N)C(=O)O` [L-arginine], the “ligand-specificity of [3H]GABA uptake” value in assay [3] is on record as “somewhat sensitive”.

As to `N[C@@H](CS)C(=O)O` [L-cysteine], the “effect on D-[3H]Asp uptake” value in assay [1] was “slight and not statistically significant”.

Take `NC(=O)CC[C@H](N)C(=O)O` [L-glutamine]: in assay [1], the “effect on D-[3H]Asp uptake” value is “slight and not statistically significant”.

Take `N[C@@H](CCS(=O)(=O)O)C(=O)O` [LHCA, L-homocysteic acid]: in assay [1], the “effect on D-[3H]Asp uptake” value is on record as “without effect”.

As for `COc1ccc2[nH]cc(CCNC(C)=O)c2c1` [N-Acetyl-5-methoxytryptamine, N-acetyl-5-methoxytryptamine], the pIC50 with Rat Synaptosomes was 4.18.

As to `CN[C@H](CC(=O)O)C(=O)O` [NMDA, N-methyl-D-aspartic acid], the “effect on [3H]Glu uptake by L-Glul cells” value in assay [2] was “without effect”. Besides, in assay [1], the “effect on D-[3H]Asp uptake” value is recorded as “without effect”.

Turning to `NC[C@H](O)c1ccc(O)c(O)c1` [Norepinephrine, norepinephrine], in assay [2], the “effect on [3H]Glu uptake by L-Glul cells” value was “only unlabelled L-glutamate seems to mediate some inhibition”. In addition, the “ligand-specificity of [3H]GABA uptake” value in assay [3] is “not inhibited”. Moreover, in the assay on Rat Synaptosomes, the pIC50 is below 5.00.

`N[C@@H](C(=O)O)[C@@H](O)C(=O)O` [THAA, D-threoaspartic acid]: the “effect on D-[3H]Asp uptake” value in assay [1] is given as “potent inhibitory effects”.

As for `N[C@@H](CS(=O)(=O)O)C(=O)O` [cysteic acid], in assay [2], the “effect on [3H]Glu uptake by L-Glul cells” value was “only unlabelled L-glutamate seems to mediate some inhibition”.

As to `NC(CS(=O)O)C(=O)O` (centres unmarked) [cysteine sulfinate], in assay [2], the “effect on [3H]Glu uptake by L-Glul cells” value is “no effect”.

As for `NCCc1ccc(O)c(O)c1` [dopamine], the “effect on [3H]Glu uptake by L-Glul cells” value in assay [2] was “only unlabelled L-glutamate seems to mediate some inhibition”.

With `CNC[C@H](O)c1ccc(O)c(O)c1` [epinephrine], the “ligand-specificity of [3H]GABA uptake” value in assay [3] was “not inhibited”.

In the case of `N[C@H](C(=O)O)c1cc(=O)[nH]o1` [ibotenic acid], in assay [2], the “effect on [3H]Glu uptake by L-Glul cells” value is given as “without effect”.

Regarding `C=C(C)[C@H]1CN[C@H](C(=O)O)[C@H]1CC(=O)O` [kainic acid], the “effect on [3H]Glu uptake by L-Glul cells” value in assay [2] was “without effect”. Moreover, the “effect on D-[3H]Asp uptake” value in assay [1] is “significant inhibition”.

Consider `NCCCC[C@H](N)C(=O)O` [lysine], for which, in assay [3], the “ligand-specificity of [3H]GABA uptake” value is “not sensitive”.

With `N[C@@H](Cc1ccccc1)C(=O)O` [phenylalanine], the “effect of competing ligand on [3H]-5HT uptake, L-S1” value (from here on “effect of competing ligand … L-S1”) in assay [4] (setting [6]) was “nor the amino acid substrates for catecholamine synthesis, phenylalanine and tyrosine, inhibited uptake of 5-HT”. Also, the “effect of competing ligand on [3H]-5HT uptake, L-S2” value (from here on “effect of competing ligand … L-S2”) in assay [5] (setting [6]) is “nor the amino acid substrates for catecholamine synthesis, phenylalanine and tyrosine, inhibited uptake of 5-HT”. For the same molecule, the “ligand-specificity of [3H]GABA uptake” value in assay [3] is “not sensitive”.

For the molecule `O=C(O)[C@@H]1CCCN1` [proline], the “ligand-specificity of [3H]GABA uptake” value in assay [3] was “not sensitive”.

With `N[C@@H](Cn1oc(=O)[nH]c1=O)C(=O)O` [quisqualate], in assay [2], the “effect on [3H]Glu uptake by L-Glul cells” value is “potent inhibitor”. Moreover, the “effect on D-[3H]Asp uptake” value in assay [1] was “without effect”.

On to `N[C@@H](CO)C(=O)O` [serine], for which, in assay [3], the “ligand-specificity of [3H]GABA uptake” value was “not sensitive”.

On to `NCCS(=O)(=O)O` [taurine], for which the “effect on [3H]Glu uptake by L-Glul cells” value in assay [2] was “only unlabelled L-glutamate seems to mediate some inhibition”. Moreover, the “effect on D-[3H]Asp uptake” value in assay [1] is “slight and not statistically significant”.

Regarding `N[C@@H](Cc1c[nH]c2ccccc12)C(=O)O` [tryptophan], the “effect of competing ligand … L-S1” value in assay [4] (setting [6]) was “Neither tryptophan, the amino acid precursor of serotonin, nor the amino acid substrates for catecholamine synthesis, phenylalanine and tyrosine, inhibited uptake of 5-HT”. Moreover, in assay [5] (setting [6]), the “effect of competing ligand … L-S2” value was “Neither tryptophan, the amino acid precursor of serotonin, nor the amino acid substrates for catecholamine synthesis, phenylalanine and tyrosine, inhibited uptake of 5-HT”. The “ligand-specificity of [3H]GABA uptake” value in assay [3] is on record as “not sensitive”.

In the case of `N[C@@H](Cc1ccc(O)cc1)C(=O)O` [tyrosine], the “effect of competing ligand … L-S1” value in assay [4] was “nor the amino acid substrates for catecholamine synthesis, phenylalanine and tyrosine, inhibited uptake of 5-HT”. Besides, the “effect of competing ligand … L-S2” value in assay [5] was “nor the amino acid substrates for catecholamine synthesis, phenylalanine and tyrosine, inhibited uptake of 5-HT”. The “ligand-specificity of [3H]GABA uptake” value in assay [3] is reported as “not sensitive”.

As to dihydroxykainate, the “effect on D-[3H]Asp uptake” value in assay [1] is reported as “significant inhibition”.

Regarding methyl-glutamylphosphonic acid [MGPA], the “effect on [3H]Glu uptake by L-Glul cells” value in assay [2] was “without effect”.
